In patent EP2054729B1, “PROCESS AND APPARATUS FOR ION CHANNEL CHARACTERIZATION” (Universität Hannover, priority 2006, dated 2008):

Target: T1, connexin hCx26 (Homo sapiens, UniProt P29033)
T1 construct: made in house; host or cells: E. coli Top10
Test: Permeation (gating activity) assay with ion channel protein in lipid membrane vesicles, fluorescence detection of Lucifer Yellow release
Format: biochemical
Conditions: for inhibitory effect: concentration range in which inhibition of gating activity was shown, same experimental setup as for carbenoxolone, vesicles adjusted to 50 µM Ca^2+, triggered by EDTA addition or heat pulse
Protocol: Lipid membrane vesicles are generated by resuspending a POPC lipid film in 150 mM sodium chloride, 10 mM Tris-HCl, pH 8, containing Lucifer Yellow as a replacement for the cation species permeated by the exemplary ion channel protein.
Following centrifugation, the supernatant is removed and vesicles are suspended in the same medium for 10 minutes. As the ion channel protein, connexin hCx26, reconstituted to its hexameric form after expression in the E.coli strain Top10 (Invitrogen), using the expression plasmid pTrcHisTOPO (available from Invitrogen, Germany) containing the hCx26 gene under the control of a trc-promoter. The gene sequence is accessible at GenBank under accession number NP 003995. Cultivation was in LB-medium containing ampicillin as the selection marker at 37 °C.
For incorporation of ion channel protein, 250 µg/mL were solubilised in 30 mM octylglucoside, 150 mM sodium chloride, 10 mM Tris-HCl, pH 8 and added to 1 mL lipid membrane vesicle suspension (10 mg POPC/mL). After incubation for 1 to 12 hours under mild agitation at 4 °C, detergent was removed by dialysis for two days at 4 °C in 150 mM sodium chloride, 10 mM Tris-HCl, pH 8, including three changes of buffer volume. Finally, the vesicles were transferred by dialysis against buffer into 150 mM sodium chloride, 10 mM Tris-HCl, pH 8 at 4 °C for removal of the ion species, namely the replacement Lucifer Yellow or the physiologically permeated ion potassium, which are permeated by the ion channel protein present. […]
Starting at a basic temperature of 4 °C, the microtiter plate was heated incrementally by steps of 2 °C each using a thermostat, with intermediate or permanent measurement of fluorescence emission under irradiation at the excitation wavelength.
From a comparison of the increase of fluorescence at increasing temperatures of a reaction composition containing the effector to that measured for an identical composition, except for the absence of effector, allows to characterize the effector at its given concentration in the assay, e.g. as an inhibitor, activator or modulator of the gating activity. […]

concentration dependency of gating activity (carbenoxolone up to final concentrations of 10 mM, plate at 28 °C, result shown graphically only (Figures 9 and 10)) | inhibitory effect | Compound
inhibitory effect |  | CC1(C)[C@@H](OC(=O)CCC(=O)O)CC[C@]2(C)[C@H]3C(=O)C=C4[C@@H]5C[C@@](C)(C(=O)O)CC[C@]5(C)CC[C@@]4(C)[C@]3(C)CC[C@@H]12 [carbenoxolone]
 | nanomolar to picomolar range | CCCCCCCO [heptanol]
 | millimolar to micromolar range | cobalt ions
